Where a name gives a salt, the structure may show the parent alone.
Biological target: T1, serotonin transporter (Rattus norvegicus, UniProt P31652)
T1 construct: displace ^3H-paroxetine from male rat frontal cortical membranes; from tissue; host or cells: male rat frontal cortex membranes
Experiment: Displacement of 3H-paroxetine from male rat frontal cortical membranes (serotonin transporter affinity)
Assay type: binding
Settings: read-out: 5-HT Transporter Affinity KI

T1 sequence (P31652 whole entry): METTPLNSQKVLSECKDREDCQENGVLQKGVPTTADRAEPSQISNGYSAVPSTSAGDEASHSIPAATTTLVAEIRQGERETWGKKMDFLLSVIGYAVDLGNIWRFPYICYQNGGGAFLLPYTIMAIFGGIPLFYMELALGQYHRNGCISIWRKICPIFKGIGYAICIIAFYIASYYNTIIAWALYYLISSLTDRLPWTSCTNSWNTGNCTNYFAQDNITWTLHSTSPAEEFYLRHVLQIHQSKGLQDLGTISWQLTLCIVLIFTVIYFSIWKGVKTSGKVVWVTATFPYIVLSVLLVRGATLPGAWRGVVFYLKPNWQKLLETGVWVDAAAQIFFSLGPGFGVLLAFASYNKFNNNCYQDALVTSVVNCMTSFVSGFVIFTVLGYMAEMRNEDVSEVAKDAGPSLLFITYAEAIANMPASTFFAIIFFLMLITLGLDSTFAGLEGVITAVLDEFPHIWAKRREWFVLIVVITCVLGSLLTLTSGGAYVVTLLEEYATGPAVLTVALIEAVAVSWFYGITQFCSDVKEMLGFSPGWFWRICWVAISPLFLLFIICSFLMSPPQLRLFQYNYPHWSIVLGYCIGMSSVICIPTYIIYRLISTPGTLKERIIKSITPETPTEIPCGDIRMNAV

Ki [nM]	SMILES
2.35	Cc1ccc2c3c(ccc2n1)OC[C@H](CNCCCc1csc2ccc(F)cc12)O3 [Example 51, N-[3-(5-Fluoro-1-benzothien-3-yl)propyl]-N-{[(2S)-8-methyl-2,3-dihydro[1,4]dioxino[2,3-f]quinolin-2-yl]methyl}amine]

Biological target: T2, cloned human 5HT1A receptors (Homo sapiens, UniProt P08908)
T2 construct: expressed in transfected cells
T2 sequence (P08908 1-422): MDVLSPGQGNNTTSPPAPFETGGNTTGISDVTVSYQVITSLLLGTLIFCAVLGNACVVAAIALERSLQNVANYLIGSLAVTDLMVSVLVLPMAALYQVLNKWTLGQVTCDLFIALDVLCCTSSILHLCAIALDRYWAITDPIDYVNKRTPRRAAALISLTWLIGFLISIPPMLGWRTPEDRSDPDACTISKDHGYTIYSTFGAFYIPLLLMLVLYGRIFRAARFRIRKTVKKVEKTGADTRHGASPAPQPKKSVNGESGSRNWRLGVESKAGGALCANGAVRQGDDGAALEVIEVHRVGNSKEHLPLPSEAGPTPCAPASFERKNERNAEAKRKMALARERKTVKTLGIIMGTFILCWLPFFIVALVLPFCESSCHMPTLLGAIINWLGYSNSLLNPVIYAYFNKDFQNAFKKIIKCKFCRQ
Experiment: 35S-GTPγS binding assay, membranes containing cloned human 5HT1A receptors
Assay type: biochemical
Settings: antagonist potency, reversal of the effects of the standard agonist 8-OHDPAT, read-out: 5-HT1A Function IC50
Experimental: Antagonist activity at 5-HT1A receptors was established by using a ^35S-GTPγS binding assay similar to that used by Lazareno and Birdsall (Br. J. Pharmacol. 109: 1120, 1993), in which the test compound's ability to affect the binding of ^35S-GTPγS to membranes containing cloned human 5HT1A receptors was determined. Agonists produce an increase in binding whereas antagonists produce no increase but rather reverse the effects of the standard agonist 8-OHDPAT. The test compound's maximum inhibitory effect is represented as the Imax, while its potency is defined by the IC50.

IC50 [nM]	SMILES
19	Cc1ccc2c3c(ccc2n1)OC[C@H](CNCCCc1csc2ccc(F)cc12)O3 [Example 51, N-[3-(5-Fluoro-1-benzothien-3-yl)propyl]-N-{[(2S)-8-methyl-2,3-dihydro[1,4]dioxino[2,3-f]quinolin-2-yl]methyl}amine]

Same assay, conditions: maximum inhibitory effect, read-out: 5-HT1A Function (Imax)

Emax [%]	SMILES
82	Cc1ccc2c3c(ccc2n1)OC[C@H](CNCCCc1csc2ccc(F)cc12)O3 [Example 51, N-[3-(5-Fluoro-1-benzothien-3-yl)propyl]-N-{[(2S)-8-methyl-2,3-dihydro[1,4]dioxino[2,3-f]quinolin-2-yl]methyl}amine]

Biological target: T3, human 5-HT1A receptors (Homo sapiens, UniProt P08908)
T3 construct: expressed in transfected cells; host or cells: CHO cells
T3 sequence (P08908 1-422): T2 sequence (P08908 1-422)
Experiment: Displacement of [3H] 8-OHDPAT from 5-HT1A receptor, CHO cells stably transfected with human 5-HT1A receptors
Assay type: binding
Settings: CHO cells with human 5-HT1A receptors, read-out: 5-HT1A Receptor Affinity KI
Source text: High affinity for the serotonin 5-HT1A receptor was established by testing the claimed compound's ability to displace [^3H] 8-OHDPAT (dipropylaminotetralin) from the 5-HT1A serotonin receptor following a modification of the procedure of Hall et al., J. Neurochem. 44, 1685 (1985) which utilizes CHO cells stably transfected with human 5-HT1A receptors.

Ki [nM]	SMILES
0.78	Cc1ccc2c3c(ccc2n1)OC[C@H](CNCCCc1csc2ccc(F)cc12)O3 [Example 51, N-[3-(5-Fluoro-1-benzothien-3-yl)propyl]-N-{[(2S)-8-methyl-2,3-dihydro[1,4]dioxino[2,3-f]quinolin-2-yl]methyl}amine]

Tested on: not given
Experiment: not given
Settings: not given

melting point	SMILES
208 to 210 °C	Cc1ccc2c3c(ccc2n1)OCC(CNCCCCc1c[nH]c2ccccc12)O3 (stereo not shown) (as salt: fumarate) [Example 9, N-[4-(1H-indol-3-yl)butyl]-N-(8-methyl-2,3-dihydro-[1,4]dioxino[2,3-f]quinolin-2-ylmethyl)amine]
165 to 170 °C	Cc1ccc2c3c(ccc2n1)OC[C@H](CNCCCc1coc2ccccc12)O3 (as salt: fumarate) [Example 18]
155 to 160 °C	COc1cccc2c(CCCNCC3COc4ccc5nc(C)ccc5c4O3)coc12 (stereo not shown) (as salt: fumarate) [Example 19, N-[3-(7-Methoxy-1-benzofuran-3-yl)propyl]-N-(8-methyl-2,3-dihydro-[1,4]dioxino[2,3-f]quinolin-2-ylmethyl)amine]
124 to 127 °C	Cc1ccc2c3c(ccc2n1)OCC(CNCCc1csc2ccccc12)O3 (stereo not shown) (as salt: fumarate) [Example 21, N-[2-(1-Benzothien-3-yl)ethyl]-N-(8-methyl-2,3-dihydro-[1,4]dioxino[2,3-f]quinolin-2-ylmethyl)amine]
127 to 130 °C	Cc1ccc2c3c(ccc2n1)OCC(CNCCCCc1coc2ccccc12)O3 (stereo not shown) (as salt: fumarate) [Example 28, N-[4-(1-Benzofuran-3-yl)butyl]-N-(8-methyl-2,3-dihydro-[1,4]dioxino[2,3-f]quinolin-2-ylmethyl)amine]
140 to 144 °C	Cc1ccc2c3c(ccc2n1)OC[C@H](CNCCCCc1csc2ccc(Cl)cc12)O3 (as salt: fumarate) [Example 49]
193 to 196 °C	Cc1ccc2c3c(ccc2n1)OC[C@H](CNCCCc1csc2ccc(Cl)cc12)O3 (as salt: fumarate) [Example 50]
196 to 199 °C	Fc1ccc2[nH]cc(CCCNC[C@H]3COc4ccc5ncccc5c4O3)c2c1 (as salt: hydrochloride) [Example 14, N-(2,3-Dihydro-[1,4]dioxino[2,3-f]quinolin-2-ylmthyl)-N-[3-(5-fluoro-1H-indol-3-yl)propyl]amine]
91 to 93 °C	Cc1nc2ccc3c(c2o1)O[C@@H](CNCCCc1c[nH]c2ccc(F)cc12)CO3 (as salt: hydrochloride) [Example 23, N-[3-(5-Fluoro-1H-indol-3-yl)propyl]-N-(2-methyl-7,8-dihydro-[1,4]dioxino[2,3-g][1,3]benzoxazol-8-ylmethyl)amine]
136 to 139 °C	Cc1nc2ccc3c(c2o1)OC(CN(C)CCCc1c[nH]c2ccc(F)cc12)CO3 (stereo not shown) (as salt: hydrochloride) [Example 24, N-[3-(5-Fluoro-1H-indol-3-yl)propyl]-N-methyl-N-(2-methyl-7,8-dihydro[1,4]dioxino[2,3-g][1,3]benzoxazol-8-ylmethyl)amine]
158 to 175 °C	CCN(CCCc1c[nH]c2ccc(F)cc12)CC1COc2ccc3nc(C)ccc3c2O1 (stereo not shown) (as salt: hydrochloride) [Example 25, N-Ethyl-N-[3-(5-Fluoro-1H-indol-3-yl)propyl]-N-(8-methyl-2,3-dihydro-[1,4]dioxino[2,3-f]quinolin-2-ylmethyl)amine]

Further lines, the molecule ahead of its results:

SMILES	melting point
Cc1ccc2c3c(ccc2n1)OC[C@H](CNCCCc1c[nH]c2ccc(F)cc12)O3 (as salt: fumarate) [Example 3, N-[3-(5-Fluoro-1H-Indolyl-3-yl)propyl]-N-(8-methyl-2,3-dihydro-[1,4]dioxino[2,3-f]quinolin-2-ylmethyl)amine]	207 to 209 °C
Cc1ccc2c3c(ccc2n1)OCC(CNCCCc1c[nH]c2ccccc12)O3 (stereo not shown) (as salt: fumarate) [Example 6, N-[3-(1H-Indol-3-yl)propyl]-N-(8-methyl-2,3-dihydro-[1,4]dioxino[2,3-f]quinolin-2-ylmethyl)amine]	202 to 203 °C
Cc1ccc2c3c(ccc2n1)OCC(CN(C)CCCc1c[nH]c2ccc(F)cc12)O3 (stereo not shown) (as salt: fumarate) [Example 7, N-[3-(5-Fluoro-1H-indol-3-yl)propyl]-N-methyl-N-(8-methyl-2,3-dihydro-[1,4]dioxino[2,3-f]quinolin-2-ylmethyl)amine]	104 to 120 °C
Cc1ccc2c3c(ccc2n1)OCC(CNCCCc1c[nH]c2c(F)cccc12)O3 (stereo not shown) (as salt: fumarate) [Example 8, N-[3-(7-Fluoro-1H-indol-3-yl)propyl]-N-(8-methyl-2,3-dihydro-[1,4]dioxino[2,3-f]quinolin-2-ylmethyl)amine]	142 to 150 °C
Cc1ccc2c3c(ccc2n1)OCC(CNCCCCc1c[nH]c2ccc(F)cc12)O3 (stereo not shown) (as salt: fumarate) [Example 10, N-[4-(5-Fluoro-1H-indol-3-yl)butyl]-N-(8-methyl-2,3-dihydro-[1,4]dioxino[2,3-f]quinolin-2-ylmethyl)amine]	138 to 154 °C
Cc1ccc2c3c(ccc2n1)OCC(CNCCCc1cn(C)c2ccc(F)cc12)O3 (stereo not shown) (as salt: fumarate) [Example 12, N-[3-(5-Fluoro-1-methyl-1H-indol-3-yl)propyl]-N-(8-methyl-2,3-dihydro-[1,4]dioxino[2,3-f]quinolin-2-ylmethyl)amine]	156 to 161 °C
Cc1ccc2c3c(ccc2n1)OCC(CNCCCc1c[nH]c2c(F)cc(F)cc12)O3 (stereo not shown) (as salt: fumarate) [Example 13, N-[3-(5,7-Difluoro-1H-indol-3-yl)propyl]-N-(8-methyl-2,3-dihydro-[1,4]dioxino[2,3-f]quinolin-2-ylmethyl)amine]	188 to 195 °C
Cc1ccc2c3c(ccc2n1)OC[C@H](CNCCc1coc2ccccc12)O3 (as salt: fumarate) [Example 17]	210 to 214 °C
Cc1ccc2c3c(ccc2n1)OC[C@H](CNCCCc1csc2ccccc12)O3 (as salt: fumarate) [Example 20]	185 to 186 °C
Cc1ccc2c3c(ccc2n1)OC[C@H](CN(C)CCCc1csc2ccccc12)O3 (as salt: fumarate) [Example 22, N-[3-(1-Benzothien-3-yl)propyl]-N-methyl-N-(8-mthyl-2,3-dihydro-[1,4]dioxino[2,3-f]quinolin-2-ylmthyl)amin]	123 to 127 °C
Cc1ccc2c3c(ccc2n1)OC[C@H](CNCCCc1csc2ccc(F)cc12)O3 (as salt: fumarate) [Example 51, N-[3-(5-Fluoro-1-benzothien-3-yl)propyl]-N-{[(2S)-8-methyl-2,3-dihydro[1,4]dioxino[2,3-f]quinolin-2-yl]methyl}amine]	117 to 120 °C
CCN(CCCCc1coc2ccccc12)C[C@H]1COc2ccc3nc(C)ccc3c2O1 (as salt: fumarate) [Example 52, N-[4-(1-Benzofuran-3-yl)butyl]-N-ethyl-N-{[(2S)-8-methyl-2,3-dihydro[1,4]dioxino[2,3-f]quinolin-2-yl]methyl}amine]	87 to 92 °C
Cc1ccc2c3c(ccc2n1)OCC(CN(C)CCCc1cn(C)c2c(F)cc(F)cc12)O3 (stereo not shown) (as salt: hydrochloride) [Example 27, N-[3-(5,7-Difluoro-1-methyl-1H-indol-3-yl)propyl]-N-methyl-N-(8-methyl-2,3-dihydro-[1,4]dioxino[2,3-f]quinolin-2-ylmethyl)amine]	190 to 204 °C
Cc1ccc2c3c(ccc2n1)OCC(CNCCCc1c[nH]c2ccc(C#N)cc12)O3 (stereo not shown) (as salt: hydrochloride) [Example 29, 3-{3-[(8-Methyl-2,3-dihydro-[1,4]dioxino[2,3-f]quinolin-2-ylmethyl)-amino]-propyl}-1H-indole-5-carbonitrile]	170 to 174 °C
Cc1nc2ccc3c(c2o1)O[C@@H](CNCCCc1c[nH]c2ccc(C#N)cc12)CO3 (as salt: hydrochloride) [Example 30, 3-{3-[(2-Methyl-7,8-dihydro-[1,4]dioxino[2,3-g][1,3]benzoxazol-8-ylmethyl)amino]-propyl}-1H-indole-5-carbanitrile]	148 to 151 °C
Cc1nc2ccc3c(c2o1)O[C@@H](CN(C)CCCc1c[nH]c2ccc(C#N)cc12)CO3 (as salt: hydrochloride) [Example 31, 3-{3-[M thyl-(2-methyl-7,8-dihydro-[1,4]dioxino[2,3[-g][1,3]benzoxazol-8-ylmethyl)-amino]-propyl)}-1H-indole-5-carbonitrile]	140 °C (dec.)
